From patent US20220088130A1, “COMPOUNDS AND METHODS FOR TREATING LIVER DISEASES” (Eberhard Karls Universität Tübingen Medizinische Fakultät, priority 2019, published 2022)
“Also recorded” adds a separate entry of the source.

How the values were obtained:
[1] = test system: zinc-dependent Aβ-degrading enzymes (ACE, ECE, NEP) in M1-4HSC lysates; test: Inhibition by EGTA of Aβ40/42 degradation in M1-4HSC lysates; type: biochemical; conditions: 5 mM EGTA; 30 and 60 minutes
Method: To quantify the Aβ42-degading ability of M1-4HSC lysate's, cell lysates from M1-4HSC (50,000 cells/ml) were obtained by 2 freezing thawing cycles at −80° C. and centrifugation for 10 min at 20,000 g.
To confirm that the disappearance of Aβ from HSC lysates reflects its enzymatic degradation rather than non-specific loss that can occur in cell lysates the activity of zinc-dependent AR-degrading enzymes comprising angiotensin converting enzyme (ACE) and endothelin converting enzyme (ECE) known to be present in HSC1 as well as NEP was blocked by 5 mM EGTA (white bars in FIG. 1D and FIG. 1E).

[2] = test system: Primary murine HSC; test: Inhibition of Aβ40 and 42 degradation by HSC in response to sacubitrilat (ELISA of supernatant); type: cell-based; conditions: 48 h, with vs. without LBQ657
Method: FIG. 9 (A-B) shown an inhibition of Aβ40 and 42 degradation by HSC in response to sacubitrilat (LBQ657). Primary murine HSC were incubated with 1000 pg/ml Aβ40 or 42 with and without LBQ657. The content of Aβ in the cell culture supernatant was measured by ELISA 48 h after incubation with Aβ40 or 42 with and without LBQ657.

[3] = test system: TGF-β in M1-4HSC; test: TGF-β level in M1-4HSC treated with Aβ (Western blot, densitometry); type: cell-based; conditions: for Expression of TGF-β: Western blot; for Intensity of TGF-β bands (55 kDa, 44 kDa, 23 kDa) adjusted to GAPDH: densitometric calculations vs. untreated ctrl.
Excerpt: (§1) The data are shown as means±SEM, *p<0.05, ***p<0.001.

[4] = test system: Col-1 in M1-4HSC; test: Col-1 production in M1-4HSC treated with Aβ (ELISA); type: cell-based; conditions: M1-4HSC culture
[5] = test system: M1-4HSC lysates; test: Degradation of Aβ42 and Aβ40 by M1-4HSC lysates (ELISA); type: in vitro ADME; conditions: for Degradation by M1-4HSC lysates: 1000 pg/ml, normalized to control without cells
[6] = test system: α-SMA in M1-4HSC; test: α-SMA level in M1-4HSC treated with Aβ (Western blot); type: cell-based; conditions: 1000 pg/ml
Excerpt: as §1

[7] = test system: eNOS in hSEC (human liver endothelial cells); test: eNOS synthesis by hSEC treated with Aβ (ELISA); type: cell-based
Excerpt: Means±SEM, *p<0.05, **p<0.01, ***p<0.001.

[8] = test system: HSC-T6; test: Aβ42 uptake from culture medium by HSC-T6 (ELISA of supernatant); type: cell-based, rat
Method: (§2) After 24 h, supernatant was centrifuged at 1500 g for 15 minutes and frozen at −80° C. until analysis.
(§3) Therefore, as a control for inherent decrease of amyloid concentrations control samples containing only culture medium, without cells (w/c) were incubated with Aβ for the same periods of time.

[9] = Loss of Aβ in cell culture medium without cells (control samples); type: physicochemical
Method: as §3

[10] = test system: LX-2; test: Aβ42 uptake from culture medium by LX-2 (ELISA of supernatant); type: cell-based, human; conditions: 50,000-200,000 cells
Method: as §2

[11] = test system: astroglial primary cultures (APC); test: Aβ42 uptake from culture medium by astroglial primary cultures (ELISA of supernatant); type: cell-based, mouse; conditions: astrocytes (APC); 1000 pg/ml Aβ42 in medium; 48 h of incubation
Method: Astroglia-rich primary cultures (APC) were prepared from newborn C57/BL6 (Charles River) mouse brains as described elsewhere (Lourhmati A, Buniatian G H, Paul C, et al. Age-dependent astroglial vulnerability to hypoxia and glutamate: the role for erythropoietin. PLoS One 2013; 8:e77182.). Briefly, the cells obtained from 5-7 brains of newborn littermates were mechanically dissociated, centrifuged and plated onto cell culture flasks (1×10^6 cells/75 cm2) in DMEM with 4.5 g/l Glucose supplemented with 10% foetal calf serum, 100 μg/ml streptomycin sulphate, 100 units/ml penicillin G and […] (Biochrom AG, Berlin, Germany) in a humidified 10% CO2 atmosphere at 37° C.
as §2, §3

[12] = test system: M1-4HSC; test: Aβ42 uptake from culture medium by M1-4HSC (ELISA of supernatant); type: cell-based
Method: as §2, §3

[13] = test system: VEGF in liver sinusoidal endothelial cells; test: VEGF expression in liver sinusoidal endothelial cells exposed to Aβ; type: cell-based
[14] = after 30 minutes of incubation with M1-4HSC lysates

Molecule | Expression of TGF-β [3] | Intensity of TGF-β bands (55 kDa, 44 kDa, 23 kDa) adjusted to GAPDH [3] | Col-1 production (in words) [4] | Level compared to the initial level in control samples without cell lysates [5, 14] [%] | Degradation by M1-4HSC lysates ([5]; after 30 minutes) [%] | Expression of α-SMA [6] | eNOS synthesis [7] | other results
O=C(O)CN(CCOCCOCCN(CC(=O)O)CC(=O)O)CC(=O)O [EGTA] |  |  |  |  |  |  |  | Effect on degradation of Aβ40/42 by M1-4HSC lysates [1]: dramatically inhibited; also recorded: abolished the degradation
C[C@H](C[C@@H](Cc1ccc(-c2ccccc2)cc1)NC(=O)CCC(=O)O)C(=O)O [LBQ657, Sacubitrilat] |  |  |  |  |  |  |  | Aβ40 degradation by HSC (content of Aβ in supernatant) ([2]; 1000 pg/ml Aβ40): Decreased degradation of Aβ; Aβ42 degradation by HSC (content of Aβ in supernatant) ([2]; 1000 pg/ml Aβ42): Decreased degradation of Aβ
amyloid beta 40 [Aβ40] | reduced the expression | capable of decreasing only the 44 kDa band | only a slight reduction | 50 | 50 | reduced the expression |  | Level compared to the initial level in control samples without cell lysates ([5]; after 60 minutes of incubation with M1-4HSC lysates): 25%; Degradation by M1-4HSC lysates ([5]; after 60 minutes): 75%
amyloid beta 42 [Aβ42] | reduced the expression | significantly decreased intensity | suppression of Col-1 production | 50 | 50 | reduced the expression | upregulation of eNOS synthesis | Suppression of TGF-β synthesis, Aβ42 compared with Aβ40 [3]: more potent than Aβ40; Uptake of Aβ42 vs. APC (decrease in cell culture supernatant) [8]: two-fold higher uptake; Peptide absorbed on plastic carrier ([9]; from 1000 pg/ml Aβ42 in culture medium, after 48 h of incubation): about 50%; Amount of Aβ42 internalized by LX-2 [10]: grew with increasing number of cells in culture; Aβ42 internalized by cells, of the remaining part available in culture medium [11]: 28%; Uptake of Aβ42 vs. APC (decrease in cell culture supernatant) ([12]; M1-4HSC vs. APC, ELISA): two-fold higher uptake; Aβ42 internalized by cells, of the remaining part available in culture medium ([12]; M1-4HSC, 1000 pg/ml Aβ42 in medium, 48 h of incubation): 55%
amyloid beta [Aβ] |  |  |  |  |  |  | increased synthesis of eNOS | Expression of liver permeability marker VEGF [13]: increase in expression; Loss of Aβ after incubation with cell culture medium in the absence of cells ([9]; 24-48 h, data not shown): over 50%
